This is an account of results in US3937820A, “Insulin composition providing alternatives to immunological resistance” (Hoechst Aktiengesellschaft, priority 1972, dated 1976).

The assay can be described thus: activity of the starting insulins in I.U./mg. The note with it: starting insulin; crystallized insulin calculated on dry substance.

Consider “crystallized insulin: pure crystallized complete insulin used as starting material”, for which the activity was not below 25 I.U./mg.

For “des-phenyl-alanine^B1 insulin [des-Phe^B1 insulin]”, the activity is listed as 25 I.U./mg.
